{"source": "paper PMC9848259", "about": "(Journal of Enzyme Inhibition and Medicinal Chemistry, 2023)", "key": {"Aβ42": {"target": "T1, Aβ42 (Homo sapiens, UniProt P05067)", "T1 construct": "expressed in transfected cells; host or cells: Escherichia coli BL21 (DE3), pET vector", "T1 sequence (P05067 672-713)": "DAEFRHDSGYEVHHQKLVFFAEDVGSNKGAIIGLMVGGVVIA", "experiment": "In cellulo β-amyloid assay, Th-S fluorescence in E. coli over-expressing Aβ42", "type": "cell-based, Escherichia coli", "details": "read-out: anti-amyloid (inhibition) capacity for Aβ42", "procedure": "Inhibition assay in Escherichia coli cells over-expressing amyloid proteins. […] Escherichia coli competent cells BL21 (DE3) were transformed with the required pET vectors carrying the DNA sequence of Aβ42 peptide. Because of the addition of the initiation codon ATG in front of genes, the over-expressed Aβ42 contains an additional methionine residue at their N terminus. For overnight culture preparation, a colony of BL21 (DE3) bearing the plasmid to be expressed was inoculated in 10 ml of M9 minimal medium containing 50 μg/ml of kanamycin at 37 °C. […] The bacterial culture was then grown at 37 °C, with orbital agitation of 250 rpm. When the cell density reached OD600nm–0.6, 980 μL of the culture were transferred into 1.5 ml conical tubes containing 10 μL of the compound to be tested dissolved in DMSO, and 10 μL of 100 mM isopropyl 1-thio-β-D-galactopyranoside (IPTG). The final concentration of the compound was set to 10 μM. The samples were grown overnight at 37 °C under agitation at 1400 rpm, using a Thermomixer (Eppendorf, Hamburg, Germany). […]\nThe fluorescence normalisation was carried out considering as 100% the Th-S fluorescence of the bacterial cells expressing Aβ42 in the absence of drug, and 0% the Th-S fluorescence of the bacterial cells non-expressing Aβ42 (in absence of the protein production inductor, IPTG). […]"}, "[1]": {"target": "T2, AChE (from the electric eel) (Electrophorus electricus, UniProt O42275)", "T2 construct": "purchased Sigma Aldrich", "T2 sequence (O42275 24-633)": "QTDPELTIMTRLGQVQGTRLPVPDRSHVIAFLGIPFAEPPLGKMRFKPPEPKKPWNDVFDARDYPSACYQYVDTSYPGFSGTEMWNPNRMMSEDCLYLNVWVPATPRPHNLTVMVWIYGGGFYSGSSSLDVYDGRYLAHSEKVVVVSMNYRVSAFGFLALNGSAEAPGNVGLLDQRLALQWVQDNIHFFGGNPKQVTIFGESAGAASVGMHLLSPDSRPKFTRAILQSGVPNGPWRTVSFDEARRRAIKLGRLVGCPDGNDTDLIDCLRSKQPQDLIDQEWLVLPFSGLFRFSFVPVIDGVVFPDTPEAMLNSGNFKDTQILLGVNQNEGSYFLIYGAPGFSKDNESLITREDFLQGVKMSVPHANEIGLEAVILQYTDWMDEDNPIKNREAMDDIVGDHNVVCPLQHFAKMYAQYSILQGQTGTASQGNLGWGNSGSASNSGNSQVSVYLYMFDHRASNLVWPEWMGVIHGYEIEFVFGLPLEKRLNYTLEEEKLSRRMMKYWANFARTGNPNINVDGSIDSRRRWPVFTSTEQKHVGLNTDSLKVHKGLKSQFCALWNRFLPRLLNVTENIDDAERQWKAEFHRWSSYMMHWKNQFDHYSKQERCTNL", "experiment": "biochemical", "procedure": "(§1) The capacity of the novel cyclopentaquinoline hybrids to inhibit AChE (from the electric eel) and BuChE (from equine serum) were determined by the modified colorimetric Ellman’s method[38]^,[39]. Both enzymes, DTNB – Ellman’s reagent (5,5′-dithiobis-(2-nitrobenzoic acid)), acetyltiocholine iodide (ATCI) were obtained from Sigma Aldrich. AChE and BuChE samples in phosphate buffer (PBS) pH 8.0 were incubated in 96-well plates in the presence of the substrate (ATCI), 76 µl of DTNB and the tested compound at various concentration at room temperature for 10 min (AChE) or eight minutes (BuChE)."}, "DNA": {"tested_on": "DNA", "experiment": "DNA damage", "details": "any tested concentration"}, "Aβ(1–42) aggregation": {"target": "Aβ(1–42) aggregation (Homo sapiens, UniProt P05067)", "sequence (P05067 672-713 limits assumed)": "as the sequence (P05067 672-713) above", "experiment": "In vitro β-amyloid assay, Thioflavin T fluorescence", "type": "biochemical", "details": "ThT"}, "in vitro": {"experiment": "in vitro", "type": "cell-based", "details": "human, human hepatic stellate cells (HSCs), read-out: cell viability (hepatotoxicity, MTT)", "method": "Human hepatic stellate cells (HSCs, Sciencell) were grown in the Stellate Cell Medium (Sciencell) supplemented with 2% Foetal Bovine Serum (Sciencell), 1% Stellate Cell Growth Supplement (Sciencell) and 1% penicillin/streptomycin solution (Sciencell). The cells were cultured in the incubator at 37 °C and 5% CO2. To start the experiment, the cells were seeded at a density of 5 × 10^3 cells/well in 96-well plates and incubated (37 °C, 5% CO2) for 24 h. After incubation, medium was removed from the wells and the cells were exposed to 100 µl of the compound over a range of concentrations (from 0.1 to 10 µM) or 100 µl of culture medium alone (blank control). The cells were then further incubated for 24 h. After this time, the medium was removed, the cells were washed with PBS and 50 µl of MTT solution (0.75 mg/ml) was added to each well. The plates were incubated in the dark at 37 °C for another two hours. The MTT solution was then removed from the wells and 100 µl of DMSO was added. The plates were incubated at room temperature for 10 min and then 5 µl of Sorensen Buffer was added to each well. The plates were swayed and the absorbance at 570 nm was measured with a microplate reader (Synergy H1, BioTek, Winooski, VT, USA). The cell viability was expressed as a percentage of the control values (blank control)[40]^,[46]^,[47]."}, "[2]": {"experiment": "pKa assay (spectrophotometric)", "type": "physicochemical", "details": "potassium phosphate buffer series with methanol, 23 °C", "method": "Potassium dihydrogen phosphate, potassium hydroxide and methanol (POCH) were used to prepare the buffer solution, as described previously. […]. The pH was measured in 23 °C by using a Mettler Toledo FiveEasy pH metre with a LE438 Lab pH electrode (Mettler Toledo). Our tested compound solution was 5 µM solution in methanol: water (1:1) mix.\nSpectrophotometric measurement was performed in a 96-well plate using a Synergy H1 microplate reader (BioTek) with Gen5 software (BioTek). The full assay consisted of 35 UV spectrum measurements, one for each work buffer solution. For the assay, 180 μL sequent work buffer and 20 μL tested compound solution were added to each of 35 wells. For the blank, 200 μL sequent work buffer alone was added to each of 35 wells. The measurement was performed at 23 °C. The spectra were recorded from 280 nm to 380 nm in 1 nm steps. Concentrations were calculated based on the 332/343 nm and 343/332 nm ratio as described previously. The results were compared with computer calculations of pKa value obtained using chemicalize.com online software (ChemAxon 2018) and ACD/Percepta version 14.0.0 (Advanced Chemistry Development, Inc., Metropolitan Toronto, Canada)."}, "SH-SY5Y cells": {"tested_on": "SH-SY5Y cells", "experiment": "Neuroprotection against rotenone/oligomycin A, co-incubation, MTT test", "type": "cell-based, human", "details": "Rotenone/Oligomycin A 30/10 µM"}, "LogP assay (RP-HPLC)": {"experiment": "LogP assay (RP-HPLC)", "type": "physicochemical", "details": "pH 11 mobile phases, read-out: logP Experimental", "method": "Methanol (POCH) was used as an organic modifier. Demineralised water was purified in our faculty. The methanol and water solution were set at pH 11 using 30 mM Triethylamine (TEA) (Sigma Aldrich). Ten isocratic mobile phases were used in the calibration and assay. The first mobile phase contained 50% methanol solution with 30 mM TEA and 50% water solution with 30 mM TEA. Each subsequent mobile phase contained 5% more methanol solution: the final mobile phase consisted of […] solution mix. The method required uncharged substances to be used during analysis.\nThese substances were selected on the basis of their structural similarity to the test compounds. The stock solutions contained about 1 mg/ml of calibration compounds or test compounds. The injection concentration was 100 µg/ml, and the injection volume was 7 µl.\nA Waters 600 HPLC system was used with a photodiode array detector (PDA). The detector was set at the respective optimum absorption wavelength for each compound. The system used an Xbridge C18 50 mm × 4.6 mm i.d., 3.5 µm, chromatographic column (Waters). Data acquisition and processing were performed on Waters Millennium software.\nThe assay was performed according to Chao Liang et al. with modification. […]\nTest compound was eluted by all mobile phases. […] The logP value was read from the calibration curve. […]"}, "[3]": {"target": "T3, BuChE (from equine serum) (Equus caballus, UniProt P81908)", "T3 construct": "purchased Sigma Aldrich; host or cells: equine serum", "T3 sequence (P81908 whole entry)": "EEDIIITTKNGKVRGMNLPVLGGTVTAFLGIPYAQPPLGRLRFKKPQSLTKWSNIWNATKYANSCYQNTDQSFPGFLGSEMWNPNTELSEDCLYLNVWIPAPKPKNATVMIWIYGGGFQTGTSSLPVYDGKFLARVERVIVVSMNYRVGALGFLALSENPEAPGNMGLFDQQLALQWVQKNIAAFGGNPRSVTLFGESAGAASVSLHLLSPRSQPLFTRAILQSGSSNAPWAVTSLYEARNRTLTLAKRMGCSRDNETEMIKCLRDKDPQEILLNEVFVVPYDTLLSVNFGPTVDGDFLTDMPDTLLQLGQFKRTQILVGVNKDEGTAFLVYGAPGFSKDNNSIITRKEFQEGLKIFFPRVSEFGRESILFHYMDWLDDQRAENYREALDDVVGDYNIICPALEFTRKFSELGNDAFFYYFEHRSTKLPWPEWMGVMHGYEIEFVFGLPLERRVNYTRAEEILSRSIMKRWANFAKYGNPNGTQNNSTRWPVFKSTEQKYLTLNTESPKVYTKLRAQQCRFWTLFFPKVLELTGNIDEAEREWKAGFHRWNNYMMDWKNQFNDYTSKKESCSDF", "experiment": "biochemical", "procedure": "as §1"}, "[4]": {"details": "means ± SD of three experiments"}}, "note": "Where two headings read alike, the source gives them in different places.", "data": [{"smiles": "O=C(NCCCCCCNc1c2c(nc3ccccc13)CCC2)c1cc(Cl)cc(Cl)c1", "note": "[Compound 3e]", "values": [{"measurement": "inhibition at 10 µM", "setting": "Aβ42", "value": 52.4, "unit": "%"}, {"measurement": "Selectivity for AChE", "setting": "[1]; IC50(BuChE)/IC50(AChE)", "value": 0.89}, {"measurement": "IC50", "setting": "[1]; [4]", "value": "131 ± 16", "unit": "nM"}, {"measurement": "DNA damage", "setting": "DNA", "value": "did not induce DNA damage"}, {"measurement": "inhibition at 5 µM", "setting": "Aβ(1–42) aggregation; 5 µM compound", "value": "55.7 ± 4.7", "unit": "%"}, {"measurement": "inhibition at 10 µM", "setting": "Aβ(1–42) aggregation; 10 µM compound", "value": "62.7 ± 5.3", "unit": "%"}, {"measurement": "inhibition at 25 µM", "setting": "Aβ(1–42) aggregation; 25 µM compound", "value": "76.5 ± 3.7", "unit": "%"}, {"measurement": "inhibition at 50 µM", "setting": "Aβ(1–42) aggregation; 50 µM compound", "value": "79.8 ± 2.9", "unit": "%"}, {"measurement": "inhibition at 100 µM", "setting": "Aβ(1–42) aggregation; 100 µM compound", "value": "82.6 ± 1.7", "unit": "%"}, {"measurement": "viability at 24 h, 0.1 µM", "setting": "in vitro; 0.1 µM", "value": 102, "unit": "%"}, {"measurement": "viability at 24 h, 1 µM", "setting": "in vitro; 1 µM", "value": 100, "unit": "%"}, {"measurement": "viability at 24 h, 10 µM", "setting": "in vitro; 10 µM", "value": 97.3, "unit": "%"}, {"measurement": "pKa", "setting": "[2]; read-out: pKa1 Experimental", "value": 8.4}, {"measurement": "pKa", "setting": "[2]; read-out: pKa2 Experimental", "value": 11.3}, {"measurement": "% neuroprotection", "setting": "SH-SY5Y cells; compound 0.0001 µM", "value": 12.75, "unit": "%"}, {"measurement": "% neuroprotection", "setting": "SH-SY5Y cells; compound 0.001 µM", "value": 8.67, "unit": "%"}, {"measurement": "% neuroprotection", "setting": "SH-SY5Y cells; compound 0.01 µM", "value": 2.82, "unit": "%"}, {"measurement": "chromatographic logP", "setting": "LogP assay (RP-HPLC)", "value": 5.44}, {"measurement": "Selectivity for BuChE", "setting": "[3]; IC50(AChE)/IC50(BuChE)", "value": 1.13}, {"measurement": "IC50", "setting": "[3]; [4]", "value": "116 ± 6", "unit": "nM"}]}]}
